Test results published in ChEMBL document CHEMBL5620422, “Design, synthesis, and biological evaluation of a series of new anthraquinone derivatives as anti-ZIKV agents” (Eur J Med Chem, 2023).
Activity calls are given as the source filed them.

Key:
[1] = Cytotoxicity against human A549 cells assessed as reduction in cell viability incubated for 48 hrs by MTT assay; assay type: toxicity, cell-based
Zika virus [2] = test: Antiviral activity against ZIKV ZG-01 infected in Vero cells preincubated for 1 hr followed by replacement with fresh media containing compound for 48 hrs by crystal violet staining based plaque assay; assay type: functional
Zika virus [3] = test: Antiviral activity against ZIKV ZG-01 infected in JEG-3 cells preincubated for 1 hr followed by replacement with fresh media containing compound for 48 hrs by crystal violet staining based plaque assay; assay type: functional
Zika virus [4] = test: Antiviral activity against ZIKV ZG-01 infected in A549 cells assessed as reduction in viral replication at 20 uM preincubated for 1 hr followed by replacement with fresh media containing compound for 48 hrs by RT-PCR analysis; assay type: functional; design: scale not given: the % may be the effect or the level left; conditions: time 49 hrs
Zika virus [5] = test: Antiviral activity against ZIKV ZG-01 infected in SNB-19 cells assessed as reduction in viral replication at 20 uM preincubated for 1 hr followed by replacement with fresh media containing compound for 48 hrs by RT-PCR analysis; assay type: functional; design: scale not given: the % may be the effect or the level left; conditions: time 49 hrs
Zika virus [6] = test: Antiviral activity against ZIKV ZG-01 infected in JEG-3 cells assessed as reduction in viral replication at 20 uM preincubated for 1 hr followed by replacement with fresh media containing compound for 48 hrs by RT-PCR analysis; assay type: functional; design: scale not given: the % may be the effect or the level left; conditions: time 49 hrs
Zika virus [7] = test: Antiviral activity against ZIKV ZG-01 infected in SNB-19 cells assessed as reduction in number of viral positive cells at 5 uM by immunofluorescence assay; assay type: functional, organism-based
Zika virus [8] = test: Antiviral activity against ZIKV ZG-01 infected in SNB-19 cells assessed as reduction in viral envelope protein level at 1 to 20 uM after 48 hrs by Western blot assay; assay type: functional, organism-based; conditions: dose 1-20 µM
Zika virus [9] = test: Antiviral activity against ZIKV ZG-01 infected in JEG-3 cells assessed as reduction in viral envelope protein level at 1 to 20 uM after 48 hrs by Western blot assay; assay type: functional, organism-based; conditions: dose 1-20 µM
Zika virus [10] = test: Antiviral activity against ZIKV ZG-01 infected in SNB-19 cells assessed as reduction in viral envelope protein level at 10 uM after 18 to 48 hrs by Western blot assay; assay type: functional, organism-based; conditions: time 18-48 hrs
Zika virus [11] = test: Antiviral activity against ZIKV ZG-01 infected in JEG-3 cells assessed as reduction in viral envelope protein level at 10 uM after 18 to 48 hrs by Western blot assay; assay type: functional, organism-based; conditions: time 18-48 hrs
[12] = Toxicity in Ifnar1 knockout C57BL/6 mouse assessed as body weight loss at 60 mg/kg administered for 7 days; assay type: organism-based; conditions: in vivo, 168 h, time 7 day
[13] = Toxicity in Ifnar1 knockout C57BL/6 mouse assessed as corneal opacities at 60 mg/kg administered for 7 days; assay type: organism-based; conditions: in vivo, 168 h, time 7 day
Zika virus [14] = test: Antiviral activity against ZIKV ZG-01 infected in Ifnar1 knockout C57BL/6 mouse assessed as reduction in duration of animal paralysis at 20 mg/kg, iv administered daily for 7 days; assay type: functional, organism-based; conditions: time 7.0 day
Zika virus [15] = test: Antiviral activity against ZIKV ZG-01 infected in Ifnar1 knockout C57BL/6 mouse assessed as increase in animal survival at 20 mg/kg, iv administered daily for 7 days; assay type: functional, organism-based; conditions: time 7.0 day
Zika virus [16] = test: Antiviral activity against ZIKV ZG-01 infected in Ifnar1 knockout C57BL/6 mouse assessed as reduction in brain viral RNA at 20 mg/kg, iv administered daily for 7 days and measured upto 12 dpi by RT-qPCR analysis; assay type: functional, organism-based; conditions: time <= 12.0 day
Zika virus [17] = test: Antiviral activity against ZIKV ZG-01 infected in Ifnar1 knockout C57BL/6 mouse assessed as reduction in neuronal necrosis by measuring karyolysis at 20 mg/kg, iv administered daily for 7 days and measured upto 12 dpi by H and E staining based analysis; assay type: functional, organism-based; conditions: time <= 12.0 day
Zika virus [18] = test: Antiviral activity against ZIKV ZG-01 infected in Ifnar1 knockout C57BL/6 mouse assessed as reduction in neuronal necrosis by measuring necrotic debris at 20 mg/kg, iv administered daily for 7 days and measured upto 12 dpi by H and E staining based analysis; assay type: functional, organism-based; conditions: time <= 12.0 day
Zika virus [19] = test: Antiviral activity against ZIKV ZG-01 infected in Ifnar1 knockout C57BL/6 mouse assessed as reduction in microglia activation by measuring Iba-1 expression at 20 mg/kg, iv administered daily for 7 days by immunohistochemistry analysis; assay type: functional, organism-based; conditions: time 7.0 day
Zika virus [20] = test: Antiviral activity against ZIKV ZG-01 infected in human SNB-19 cells assessed as reduction in IL-1beta expression at 1 to 5 uM by RT-PCR analysis; assay type: functional, organism-based; conditions: dose 1-5 µM
Zika virus [21] = test: Antiviral activity against ZIKV ZG-01 infected in human SNB-19 cells assessed as reduction in IFNgamma expression at 1 to 5 uM by RT-PCR analysis; assay type: functional, organism-based; conditions: dose 1-5 µM
Zika virus [22] = test: Antiviral activity against ZIKV ZG-01 infected in human JEG-3 cells assessed as reduction in IL-6 expression at 1 to 5 uM by RT-PCR analysis; assay type: functional, organism-based; conditions: dose 1-5 µM
Zika virus [23] = test: Antiviral activity against ZIKV ZG-01 infected in human SNB-19 cells assessed as reduction in IL-1beta release at 1 to 5 uM by ELISA; assay type: functional, organism-based; conditions: dose 1-5 µM
Zika virus [24] = test: Antiviral activity against ZIKV ZG-01 infected in human JEG-3 cells assessed as reduction in IL-1beta release at 1 to 5 uM by ELISA; assay type: functional, organism-based; conditions: dose 1-5 µM
SNB-19 [25] = test: Antiinflammatory activity in human SNB-19 cells assessed as reduction in IL-1beta expression by RT-PCR analysis; assay type: functional, cell-based
SNB-19 [26] = test: Antiinflammatory activity in human SNB-19 cells assessed as reduction in TNFalpha expression by RT-PCR analysis; assay type: functional, cell-based
SNB-19 [27] = test: Antiinflammatory activity in human SNB-19 cells assessed as reduction in IFNgamma expression by RT-PCR analysis; assay type: functional, cell-based
JEG-3 [28] = test: Antiinflammatory activity in human JEG-3 cells assessed as reduction in IL-1beta expression by RT-PCR analysis; assay type: functional, cell-based
JEG-3 [29] = test: Antiinflammatory activity in human JEG-3 cells assessed as reduction in IL-6 expression by RT-PCR analysis; assay type: functional, cell-based
Zika virus [30] = test: Antiviral activity against ZIKV ZG-01 infected in human SNB-19 cells assessed as reduction in cell pyroptosis; assay type: functional, organism-based
Zika virus [31] = test: Antiviral activity against ZIKV ZG-01 infected in human JEG-3 cells assessed as reduction in cell pyroptosis; assay type: functional, organism-based
Zika virus [32] = test: Antiviral activity against ZIKV ZG-01 infected in human SNB-19 cells assessed as reduction in LDH release incubated for 36 hrs; assay type: functional, organism-based; conditions: dose 1-5 µM
Zika virus [33] = test: Antiviral activity against ZIKV ZG-01 infected in human SNB-19 cells assessed as reduction in GSDMD cleavage by Western blot analysis; assay type: functional, organism-based; conditions: dose 1-20 µM
Zika virus [34] = test: Antiviral activity against ZIKV ZG-01 infected in human SNB-19 cells assessed as reduction in GSDME cleavage by Western blot analysis; assay type: functional, organism-based; conditions: dose 1-20 µM
Zika virus [35] = test: Antiviral activity against ZIKV ZG-01 infected in human JEG-3 cells assessed as reduction in GSDME cleavage by Western blot analysis; assay type: functional, organism-based; conditions: dose 1-20 µM
NS5 = NS5 (Zika virus, UniProt A0A143MHK7); test: Binding affinity to ZIKV RdRP by SPR assay
Chain of NS5 (A0A143MHK7 whole entry): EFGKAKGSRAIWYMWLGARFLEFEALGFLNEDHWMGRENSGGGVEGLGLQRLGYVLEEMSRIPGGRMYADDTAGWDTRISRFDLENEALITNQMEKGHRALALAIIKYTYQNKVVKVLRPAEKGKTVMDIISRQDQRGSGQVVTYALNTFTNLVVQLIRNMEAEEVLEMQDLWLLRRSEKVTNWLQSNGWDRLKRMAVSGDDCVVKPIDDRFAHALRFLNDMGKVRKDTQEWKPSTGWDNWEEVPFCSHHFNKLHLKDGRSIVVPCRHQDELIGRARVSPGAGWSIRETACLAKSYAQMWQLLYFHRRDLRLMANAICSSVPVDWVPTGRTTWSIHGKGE

C[C@]1(O)CC2=C(C[C@@]1(C)O)C(=O)c1c(O)cc(N3CCC(c4ccccc4)CC3)c(O)c1C2=O
100%: Activity (Zika virus [4]) | Activity (Zika virus [5]) | Activity (Zika virus [6])
inactive: Activity (SNB-19 [25]) | Activity (SNB-19 [26]) | Activity (SNB-19 [27]) | Activity (JEG-3 [28]) | Activity (JEG-3 [29])
6.4 µM: EC90 (Zika virus [2]; ZG-01, Vero, time 49 hrs) | EC90 (Zika virus [3]; ZG-01, JEG-3, time 49 hrs)
Non-Toxic: Activity [12] | Activity [13]
active: Activity (Zika virus [2]; time 49.0 hrs) Dose-Dependent Effect | Activity (Zika virus [3]; time 49.0 hrs) Dose-Dependent Effect | Activity (Zika virus [7]) | Activity (Zika virus [8]) | Activity (Zika virus [9]) | Activity (Zika virus [10]) | Activity (Zika virus [11]) | Activity (Zika virus [14]) | Activity (Zika virus [15]) | Activity (Zika virus [16]) | Activity (Zika virus [17]) | Activity (Zika virus [18]) | Activity (Zika virus [19]) | Activity (Zika virus [20]) | Activity (Zika virus [21]) | Activity (Zika virus [22]) | Activity (Zika virus [23]) | Activity (Zika virus [24]) | Activity (Zika virus [30]) | Activity (Zika virus [31]) | Activity (Zika virus [32]) Dose-Dependent Effect | Activity (Zika virus [33]) Dose-Dependent Effect | Activity (Zika virus [34]) Dose-Dependent Effect | Activity (Zika virus [35]) Dose-Dependent Effect
10.4 µM: Kd (NS5)
> 50 µM: CC50 at 48 h [1]
